In one series the test system is BSF trypanosomes. As to the kind of experiment: Static–cidal assay. The note with it: lower concentrations cytostatic. It is filed as cell-based, T. brucei. The text has this:
To complement our established T. brucei cell-based screen, in the course of these studies, we developed an assay that allows discrimination of compounds that are cytostatic from those that are cytocidal.[15] In this assay, static and cidal compounds are categorized by analysis of growth curves, with cidal compounds causing a decrease in parasite numbers. Commonly, phenotypic screens with T. brucei are end-point assays with live-cell indicators used as the final readout. In our […] assay, bloodstream trypanosomes are grown in the presence of test compounds for 3 days with a starting cell density well below the assay limit of detection, thus making it impossible to distinguish cidal from static compounds. To assess if compounds within this diaminothiazole series kill trypanosomes or merely stop parasite growth, we profiled a panel of compounds in our static–cidal assay. […] Similarly in rats, the concentration would be below the level for cidal activity.
An assay to assess initial indications of the cidal nature of the compound series was conducted as previously reported.[15] […] After 4 h, the time = 0 plate was read using a PerkinElmer Victor 3 plate reader (excitation 528 nm; emission 590 nm). […]

Series [1] relates to BSF T. b. brucei “single marker” S427. Nature of the series: Drug sensitivity assay with bloodstream-form T. brucei. The note with it: for EC50: mean values, number of replicates in parentheses. Format: cell-based. The protocol:
(§1) Drug sensitivity assays with BSF T. b. brucei “single marker” S427 and human MRC-5 fibroblasts were conducted as previously described.[43]

The next series has as its system human MRC-5 fibroblasts. Nature of the series: Mammalian cell counter screen (MRC-5). It is filed as cell-based. To be noted: for SI: selectivity index (EC50 MRC5/EC50 T. brucei). The method, then: as §1
Series [2] in a line: Mouse liver microsomal intrinsic clearance. Format: in vitro ADME. The gist of the method:
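Compound (0.5 μM) incubated with liver microsomes (0.5 mg/mL, 50 mM potassium phosphate pH 7.4) and excess NADPH; samples quenched at 0–30 min and analysed by UPLC–MS/MS. Rate constant from exponential decay of compound/internal standard ratio; CLint scaled with 52.5 mg protein/g liver.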

A further series relates to T. b. brucei S427. Nature of the series: Stage 1 efficacy study in NMRI mice. It is filed as in vivo. The protocol: Stage 1 efficacy experiments using T. b. brucei S427 were performed as described,[44] with minor modifications. In brief, male SD rats (38) or female HRN (16) and NMRI (16, 38) mice (3–5 per group) were injected intraperitoneally with 1 × 10^4 BSFs of T. brucei. These BSFs come from a stock of cryopreserved stabilates containing 10% glycerol. The stabilate was suspended in 20 mM Hanks’ balanced salt solution with glucose to obtain a trypanosome concentration of 5 × 10^4 cells mL^–1. Each mouse was injected with 0.2 mL. […] Dose concentrations were 1.25, 2.5, 5, 7.5, 10, 30, and 50 mg kg^–1 free base (16) or 100 mg kg^–1 free base (38). The doses were prepared fresh daily, using 5% DMSO/40% PEG400/55% Milli-Q (16) or 15% solutol/85% Milli-Q (38), and the dose volume was 10 mL kg^–1. One group of three mice was an untreated control group.

Series [3] is described as follows: Mouse brain penetration (brain:blood ratio). It is filed as in vivo, female NMRI mice. The note with it: mice, bolus of test compound, total compound. The protocol: Medicines for HAT are required to treat both acute and chronic infections, where parasites pass through the blood/brain barrier and enter the CNS. With this in mind, mice were dosed with an […] bolus of our test compounds, and compound concentrations in blood and brain were determined by UPLC–MS/MS. […] The brain fraction unbound was 0.0063 for 16 and 0.0313 for 38. Brain penetration of the series as a whole tracked with the generally accepted rules of CNS penetration, with a lower topological PSA (TPSA) and molecular weight compounds having an increased B/B ratio (Table S2 and Figure S1). However, the link between log P and the B/B ratio was slightly less convincing. […] This difference could be explained by 18 being a substrate for the P-glycoprotein efflux pump.
Each compound was dosed as an IV bolus at 10 mg kg^–1 dissolved in 15% solutol/Milli-Q (dose volume 10 mL kg^–1) to female NMRI mice (n = 3). At 30 min following the IV bolus of the test compound, mice (n = 3/time point) were placed under terminal anesthesia with isoflurane. A blood sample was taken by cardiac puncture and added to two volumes of distilled water, and the brain was removed. […] For each mouse at each time point, the concentration in the brain (ng g^–1) was divided by the concentration in blood (ng mL^–1) to give a brain: blood ratio.

“And” between values parts separate entries of the source, which are not always exact repeats. Equal values may be shown once. “Also recorded” adds a separate entry of the source.

Consider `CC(C)(O)CC(=O)c1sc(Nc2ccc(F)c(F)c2)nc1N` [Compound 38, 1-(4-Amino-2-((3,4-difluorophenyl)amino)thiazol-5-yl)-3-hydroxy-3-methylbutan-1-one], for which the “concentration that is cidal (reduction in parasite number)” value in the series with BSF trypanosomes was 50 µM. In addition, in series [1] (Trypanosoma brucei, T. brucei), the EC90 is 0.131 µg/mL and 400 nM. Besides, the half-maximal effective concentration (EC50) in series [1] (Trypanosoma brucei) was 0.18 µM. Moreover, the SI in the series with human MRC-5 fibroblasts was 256. In addition, in series [2], the “CLint (mouse)” value was determined as 2.2 mL·min/g. Also, the “stage 1 efficacy, parasitemia” value in the series with T. b. brucei S427 (bid 4 days 100 mg kg^–1) is “no reduction in parasitemia”. The Kp at 30 min in series [3] (female, NMRI, mouse, brain and blood, 10 mg kg^–1, read-out: brain/blood (B/B) ratio) worked out at 1.4.

“(4-Amino-2-(cyclohexylamino)thiazol-5-yl)(2,6-difluorophenyl)methanone [Compound 16]”: in the series with BSF trypanosomes, the “concentration that is cidal (reduction in parasite number)” value was “above 5.6 μM”. Also, the concentration for a half-maximal effect (EC50) came to 0.11 µM in series [1] and 1.2 µM with human MRC-5 fibroblasts (mean values, number of replicates in parentheses, read-out: MRC-5 EC50). Besides, the SI with human MRC-5 fibroblasts came to 11. In addition, the “CLint (mouse)” value in series [2] came to 15 mL·min/g. Further, in the series with T. b. brucei S427 (IP 10 mg kg^–1 twice daily for 4 days), the “stage 1 efficacy (cure = no parasitemia for 30 days)” value is “complete cure; also recorded: efficacious”. The “brain/blood (B/B) ratio” value in series [3] is reported as 3.3.
